In patent US20130203805A1, “Methods for treating anemia using inhibitors of hypoxia-inducible factor (HIF) hydroxylase” (FIBROGEN, INC., priority 2001, published 2013):

Legend:
erythropoietin [1] = assay: Dose response in vivo: serum erythropoietin (Example 3); design: species or system Sprague Dawley male rats; conditions: rats; oral gavage 350 mg/kg on two days or 100 mg/kg daily days 1 to 7; within 1 day of treatment; FIG. 4A
Description: Twelve Sprague Dawley male rats (approx. 260 g) were obtained from Charles River Laboratories, Inc., and treated by oral gavage as follows: (1) Four rats were dosed daily for days 1 to 7 with 0.5% carboxymethyl cellulose (CMC; Sigma-Aldrich, St. Louis Mo.) (0 mg/kg), were not treated for days 8 to 14, and then were dosed daily for days 15 to 19 with 0.5% CMC (0 mg/kg); (2) four animals were treated on day 0 and day 3 with a total of 7 ml/kg/day of 5.0% compound C (50 mg/ml in 0.5% CMC) (350 mg/kg), were not treated days 8 to 14, and then were dosed daily for days 15 to 19 with 3% compound C: (30 mg/ml in 0.5% CMC) (60 mg/kg/day); and (3) four animals were treated daily for days 1 to 7 with a total volume of 4 ml/kg/day of 2.5% compound C (25 mg/ml in 0.5% CMC) (100 mg/kg), were not treated days 8 to 14, and then were dosed daily for days 15 to 19 with 3% compound C (60 mg/kg/day). Thus, groups (2) and (3) received a total of 700 mg compound/kg body weight over the first 7 days, no treatment from days 8 to 14, and then 60 mg/kg/day for another 5 days. Animals were monitored for change in body weight and signs of toxicity. Blood samples (2×0.5 ml) were collected on days 1, 3, 7, 10, 17 and 21 as follows. Animals were anesthetized with isoflurane and 0.5 ml of blood was collected from the tail vein of each animal into each of two MICROTAINER EDTA-2K tubes (Becton-Dickinson). […]

erythropoietin [2] = assay: Erythropoietin production following bilateral nephrectomy: serum erythropoietin (Example 8); format: in vivo; conditions: rats, 100 or 150 mg/kg oral gavage at 2 and 20 hours post-surgery, blood at 24 hours, FIG. 7
Description: The ability of a compound of the invention to induce endogenous erythropoietin production in the absence of functioning kidney was assayed using a procedure described by Jacobson et al, (1957, Nature 179:633-634.) Briefly, rats were anesthetized under isoflurane and a midline abdominal incision was made under sterile conditions. The kidney capsules were peeled off, the pedicles were ligated, and both kidneys were removed. The abdomen was then closed and the animal was allowed to recover.
Animals were treated by oral gavage at 2 and 20 hours post-surgery with either 0.5% carboxymethyl cellulose (CMC; Sigma-Aldrich, St. Louis Mo.) or with compound C at 100 or 150 mg/kg. Blood samples (0.6 ml) were collected at 24 hours as follows. Animals were anesthetized with isoflurane and blood was collected from the tail vein into a MICROTAINER EDTA-2K tube (Becton-Dickinson). Blood samples were processed for erythropoietin levels and hematocrit as described in Example 2. Complete Blood Count (CBC) analysis, including blood hemoglobin level, reticulocyte number, and hematocrit, was performed by IDEXX veterinary service (W. Sacramento, Calif.).

O=C(O)CNC(=O)c1nc(Cl)c2ccccc2c1O [Compound C, [(1-chloro-4-hydroxy-isoquinoline-3-carbonyl)-amino]-acetic acid]
serum erythropoietin level (erythropoietin [1]): significantly increased
serum erythropoietin levels, sham-operated animals (erythropoietin [2]): significantly increased
serum erythropoietin levels, bilaterally nephrectomized animals (erythropoietin [2]; relative to untreated BN and sham controls): noticably increased
